Results published in ChEMBL document CHEMBL1201862, “PubChem BioAssay data set” (2004).
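Dose response: 5 concentrations. Exposure: 48 h. Format: 96-well plates. Endpoint: linear interpolation; highest concentration if not reached. GI50 is the concentration that inhibits growth by half.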 Activity calls are given as the source filed them. Cut-off read from the data, not from the text of the source: active = GI50 up to about 1.1 µM and inactive = higher.

Experiments:
Test in all cases: NCI anticancer screen, dose series, 48 h
UO-31 = system: UO-31
OVCAR-4 = system: OVCAR-4
SK-MEL-5 = system: SK-MEL-5
COLO 205 = system: COLO 205
EKVX = system: EKVX
OVCAR-3 = system: OVCAR-3
SW-620 = system: SW-620
NCI-H226 = system: NCI-H226
HOP-92 = system: HOP-92
HCC 2998 = system: HCC 2998
SNB-75 = system: SNB-75
UACC-257 = system: UACC-257
TK-10 = system: TK-10
SF-268 = system: SF-268
SK-MEL-28 = system: SK-MEL-28
KM12 = system: KM12
SK-OV-3 = system: SK-OV-3
OVCAR-5 = system: OVCAR-5
NCI/ADR-RES = system: NCI/ADR-RES
SN12C = system: SN12C

SMILES | GI50 (UO-31) | GI50 (OVCAR-4) | GI50 (SK-MEL-5) | GI50 (COLO 205) | GI50 (EKVX) | GI50 (OVCAR-3) | GI50 (SW-620) | GI50 (NCI-H226) | GI50 (HOP-92) | GI50 (HCC 2998) | GI50 (SNB-75) | GI50 (UACC-257) | GI50 (TK-10) | GI50 (SF-268) | GI50 (SK-MEL-28) | GI50 (KM12) | GI50 (SK-OV-3) | GI50 (OVCAR-5) | GI50 (NCI/ADR-RES) | GI50 (SN12C)
COC(=O)C1=C(C)N2CCCOC2(C)C(C(=O)OC)C1c1cccc(Cl)c1 (stereo not given) | 22.3 µM (inactive) | 56.5 µM (inactive) | > 100 µM (inactive) | 17.3 µM (inactive) | 14 µM (inactive) | 22.2 µM (inactive) | > 100 µM (inactive) | 17.8 µM (inactive) | 19.1 µM (inactive) | 35.3 µM (inactive) | 0.452 µM (active) | 19.7 µM (inactive) | 53 µM (inactive) | 32.8 µM (inactive) | 21.7 µM (inactive) | 17.9 µM (inactive) | – | – | – | –
CCCCC#CS(=O)(=O)C(F)(F)F | 68.9 µM (inactive) | 27.9 µM (inactive) | 52.7 µM (inactive) | > 75.7 µM (inactive) | > 100 µM (inactive) | > 56.4 µM (inactive) | > 100 µM (inactive) | > 100 µM (inactive) | 34.1 µM (inactive) | > 31.6 µM (inactive) | 36.6 µM (inactive) | 12.9 µM (inactive) | – | > 72.4 µM (inactive) | > 60 µM (inactive) | > 83.9 µM (inactive) | > 94.2 µM (inactive) | > 100 µM (inactive) | 47.3 µM (inactive) | > 100 µM (inactive)
CO[C@@]12[C@H](COC(N)=O)C3=C(C(=O)C(C)=C(N)C3=O)N1C[C@@H]1N[C@@H]12 [MITOMYCIN] | 1.87 µM (inactive) | 3.56 µM (inactive) | – | 1.02 µM (active) | 4.62 µM (inactive) | 3.07 µM (inactive) | 0.485 µM (active) | 0.714 µM (active) | 3.49 µM (inactive) | 0.614 µM (active) | – | 1.21 µM (inactive) | 4.86 µM (inactive) | – | 1.75 µM (inactive) | 2.22 µM (inactive) | 1.02 µM (active) | 1.36 µM (inactive) | 4.74 µM (inactive) | –
COc1ccc2[nH]cc(/C=C(/C)c3ccncc3)c2c1 | 23.2 µM (inactive) | 65 µM (inactive) | 3.1 µM (inactive) | 3.1 µM (inactive) | 15.6 µM (inactive) | 5.7 µM (inactive) | 3.83 µM (inactive) | 22.6 µM (inactive) | 6.47 µM (inactive) | 8.24 µM (inactive) | 2.38 µM (inactive) | 7.48 µM (inactive) | – | 11.1 µM (inactive) | 4.94 µM (inactive) | 2.44 µM (inactive) | 4.41 µM (inactive) | 33.1 µM (inactive) | 2.94 µM (inactive) | 8.59 µM (inactive)
O=C1/C(=C/c2ccc(Cl)cc2)N=C(c2ccccc2)N1/N=C/c1ccccc1O | 11.6 µM (inactive) | 4.57 µM (inactive) | 15.1 µM (inactive) | 16.3 µM (inactive) | 4.66 µM (inactive) | 9.1 µM (inactive) | > 100 µM (inactive) | 19.2 µM (inactive) | 11.5 µM (inactive) | – | 6.31 µM (inactive) | > 100 µM (inactive) | 1.68 µM (inactive) | 14.8 µM (inactive) | 15.1 µM (inactive) | 12.9 µM (inactive) | 5.61 µM (inactive) | 12.7 µM (inactive) | 18.2 µM (inactive) | 23.4 µM (inactive)
O=S(O)c1cc(Cl)c(O)c(Cl)c1 | > 100 µM (inactive) | > 100 µM (inactive) | – | – | > 100 µM (inactive) | > 100 µM (inactive) | – | – | – | > 100 µM (inactive) | > 100 µM (inactive) | > 100 µM (inactive) | > 100 µM (inactive) | > 100 µM (inactive) | > 100 µM (inactive) | > 100 µM (inactive) | > 100 µM (inactive) | > 100 µM (inactive) | – | > 100 µM (inactive)
Nc1ccc(OCC(O)N2C(=O)c3ccccc3C2=O)cc1 (stereo not given) | > 100 µM (inactive) | > 100 µM (inactive) | > 100 µM (inactive) | > 100 µM (inactive) | > 100 µM (inactive) | > 100 µM (inactive) | 76.9 µM (inactive) | – | – | > 100 µM (inactive) | – | > 100 µM (inactive) | > 100 µM (inactive) | > 100 µM (inactive) | > 100 µM (inactive) | – | > 100 µM (inactive) | > 100 µM (inactive) | > 100 µM (inactive) | –
C#CCCCC(=C)C[C@H](OCc1ccccc1)[C@H]1OC(=O)[C@@H]1C | 23.9 µM (inactive) | > 100 µM (inactive) | – | – | > 100 µM (inactive) | 31.3 µM (inactive) | > 100 µM (inactive) | 96.4 µM (inactive) | 37.6 µM (inactive) | > 100 µM (inactive) | > 100 µM (inactive) | > 100 µM (inactive) | > 100 µM (inactive) | > 100 µM (inactive) | > 100 µM (inactive) | 39 µM (inactive) | > 100 µM (inactive) | > 100 µM (inactive) | 40.9 µM (inactive) | > 100 µM (inactive)
COC1/C=C\C=C(/C)C(=O)NC2=CC(=O)C=C(C2=O)C(OC)C(C)CC(OC)C(OC)C(C)/C=C(/C)C1OC(N)=O (stereo not given) | 16.4 µM (inactive) | 8.26 µM (inactive) | 4.35 µM (inactive) | 0.084 µM (active) | 1.97 µM (inactive) | 1.49 µM (inactive) | 0.146 µM (active) | 21.8 µM (inactive) | 2.04 µM (inactive) | 2.66 µM (inactive) | 17.3 µM (inactive) | 1.37 µM (inactive) | – | 11.5 µM (inactive) | 2.59 µM (inactive) | 5.7 µM (inactive) | 14.6 µM (inactive) | 15.3 µM (inactive) | 5.73 µM (inactive) | 5.25 µM (inactive)
